One test has as its target T1, recombinant BRD4 BD1 (Homo sapiens, UniProt O60885).
T1 construct: for recombinant BRD4 BD1 and BRD4 BD2 proteins
The experiment in a line: Competitive fluorescence-polarization (FP) binding assay, BRD4 BD1. Particulars: FP competitive binding, BRD4 BD1; for IC50: read-out: Binding affinities (FP) BRD4BD1 IC50; for Ki: read-out: Binding affinities (FP) BRD4BD1 Ki. In short, it runs like this: (§1)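 FP competition with FAM-labelled probe (ZBA248 or BRD-1F) against preincubated protein/probe complex; BD1 at 10 nM and BD2 at 6 nM final, in 100 mM potassium phosphate pH 6.5, 0.01% Triton X-100. 30 min, room temperature. IC50 by nonlinear regression; Ki also derived, using probe Kd from protein saturation.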

For the next test, the target named is T2, recombinant BRD4 BD2 (Homo sapiens, UniProt O60885).
T2 construct: for recombinant BRD4 BD1 and BRD4 BD2 proteins
The test is described as follows: Competitive fluorescence-polarization (FP) binding assay, BRD4 BD2. Conditions: FP competitive binding, BRD4 BD2; for IC50: read-out: Binding affinities (FP) BRD4BD2 IC50; for Ki: read-out: Binding affinities (FP) BRD4BD2 Ki. In short, it runs like this: as §1

Another test relates to MDA-MB-436. The experiment in a line: Cell growth inhibition, MDA-MB-436 breast cancer cells (WST-8). Format: cell-based. Conditions: Homo sapiens, 96 h; MDA-MB-436 cells, 4 days; read-out: Cellular data MDA-MB-436 IC50. The method, boiled down:
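IC50 was computed from WST-8-based cell counting in MDA-MB-436 cells, with absorbance read at 450 nm.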

The next test deals with LNCaP. The experiment in a line: Cell growth inhibition, LNCaP prostate cancer cells (Cell-Titer GLO). Conditions: Homo sapiens, read-out: Cellular data LNCaP IC50. It is filed as cell-based.

Molecules are shown by their SMILES.

Drawing on patent publication US9580430B2, “9H-pyrimido[4,5-B]indoles and related analogs as BET bromodomain inhibitors” (THE REGENTS OF THE UNIVERSITY OF MICHIGAN, priority 2014, dated 2017), this text covers IC50 and Ki for 14 compounds.

`COc1cc2c(cc1-c1c(C)noc1C)[nH]c1nc(C)nc(Nc3cc(C4CC4)nn3C3CCOCC3)c12` [Cpd. No. 283, N-(3-cyclopropyl-1-(tetrahydro-2H-pyran-4-yl)-1H-pyrazol-5-yl)-7-(3,5-dimethylisoxazol-4-yl)-6-methoxy-2-methyl-9H-pyrimido[4,5-b]indol-4-amine]: the concentration for half-maximal inhibition (IC50) on recombinant BRD4 BD1 turned out to be 4.5 nM; on recombinant BRD4 BD2, 5 nM; in the test with MDA-MB-436, 19 nM; with LNCaP, 12 nM. Besides, the Ki at recombinant BRD4 BD1 was 0.6 nM; at recombinant BRD4 BD2, 0.9 nM.
As to `COc1cc2c(cc1-c1c(C)noc1C)[nH]c1nc(C)nc(Nc3cc(C4CC4)nn3CCN3CCOCC3)c12` [Cpd. No. 284, N-(3-cyclopropyl-1-(2-morpholinoethyl)-1H-pyrazol-5-yl)-7-(3,5-dimethylisoxazol-4-yl)-6-methoxy-2-methyl-9H-pyrimido[4,5-b]indol-4-amine], the IC50 at recombinant BRD4 BD1 was determined as 10 nM; at recombinant BRD4 BD2, 10.6 nM; with MDA-MB-436 it was 268 nM; with LNCaP, 105 nM. Further, the Ki on recombinant BRD4 BD1 stood at 3 nM; on recombinant BRD4 BD2, 2.6 nM.
On to `COCCc1nc(Nc2cc(C3CC3)nn2C)c2c(n1)[nH]c1cc(-c3c(C)noc3C)c(OC)cc12` [Cpd. No. 287, N-(3-cyclopropyl-1-methyl-1H-pyrazol-5-yl)-7-(3,5-dimethylisoxazol-4-yl)-6-methoxy-2-(2-methoxyethyl)-9H-pyrimido[4,5-b]indol-4-amine], for which the 50% inhibitory concentration (IC50) was determined as 3.1 nM on recombinant BRD4 BD1, 1.4 nM at recombinant BRD4 BD2, 58 nM in the test with MDA-MB-436 and 81 nM with LNCaP. The inhibitory constant (Ki) on recombinant BRD4 BD1 and at recombinant BRD4 BD2 was < 1 nM in each case.
In the case of `COCCOCc1nc(Nc2cc(C3CC3)nn2C)c2c(n1)[nH]c1cc(-c3c(C)noc3C)c(OC)cc12` [Cpd. No. 288, N-(3-cyclopropyl-1-methyl-1H-pyrazol-5-yl)-7-(3,5-dimethylisoxazol-4-yl)-6-methoxy-2-((2-methoxyethoxy)methyl)-9H-pyrimido[4,5-b]indol-4-amine], the IC50 came to 4.9 nM at recombinant BRD4 BD1, 1.6 nM at recombinant BRD4 BD2, 13 nM in the test on MDA-MB-436 and 37 nM with LNCaP. In addition, the Ki at recombinant BRD4 BD1 and on recombinant BRD4 BD2 was < 1 nM in each case.
Consider `COc1cc2c(cc1-c1c(C)noc1C)[nH]c1nc(CS(C)(=O)=O)nc(Nc3cc(C4CC4)nn3C)c12` [Cpd. No. 289, N-(3-cyclopropyl-1-methyl-1H-pyrazol-5-yl)-7-(3,5-dimethylisoxazol-4-yl)-6-methoxy-2-((methylsulfonyl)methyl)-9H-pyrimido[4,5-b]indol-4-amine], for which the IC50 at recombinant BRD4 BD1 was 2.4 nM; on recombinant BRD4 BD2, 2.2 nM; with MDA-MB-436, 57 nM; with LNCaP, 130 nM. The Ki on recombinant BRD4 BD1 and on recombinant BRD4 BD2 was < 1 nM throughout.
With `CCn1nc(C2CC2)cc1Nc1nc(N)nc2[nH]c3cc(-c4c(C)noc4C)c(OC)cc3c12` [Cpd. No. 290, N4-(3-cyclopropyl-1-ethyl-1H-pyrazol-5-yl)-7-(3,5-dimethylisoxazol-4-yl)-6-methoxy-9H-pyrimido[4,5-b]indole-2,4-diamine], the 50% inhibitory concentration (IC50) at recombinant BRD4 BD1 came out at 4.8 nM; on recombinant BRD4 BD2, 4.5 nM; with MDA-MB-436 it was 19 nM; with LNCaP, 12 nM. Also, the Ki at recombinant BRD4 BD1 and at recombinant BRD4 BD2 was < 1 nM in each case.
On to `COc1cc2c(cc1-c1c(C)noc1C)[nH]c1nc(N)nc(Nc3cc(C4CC4)nn3C3CC3)c12` [Cpd. No. 291, N4-(1,3-dicyclopropyl-1H-pyrazol-5-yl)-7-(3,5-dimethylisoxazol-4-yl)-6-methoxy-9H-pyrimido[4,5-b]indole-2,4-diamine], for which the IC50 at recombinant BRD4 BD1 worked out at 5.2 nM; at recombinant BRD4 BD2, 4.9 nM; with MDA-MB-436, 37 nM; in the test on LNCaP, 20 nM. In addition, the Ki at recombinant BRD4 BD1 was found to be 1.5 nM; at recombinant BRD4 BD2 it was 1 nM.
For the compound `COc1cc2c(cc1-c1c(C)noc1C)[nH]c1nc(N)nc(Nc3c4c(nn3C(C)C)CCC4)c12` [Cpd. No. 292, 7-(3,5-dimethylisoxazol-4-yl)-N4-(2-isopropyl-2,4,5,6-tetrahydrocyclopenta[c]pyrazol-3-yl)-6-methoxy-9H-pyrimido[4,5-b]indole-2,4-diamine], the IC50 at recombinant BRD4 BD1 is 2 nM; at recombinant BRD4 BD2, 2.3 nM; with MDA-MB-436 it was 12 nM; with LNCaP it was 7 nM. In addition, the inhibitory constant (Ki) on recombinant BRD4 BD1 and at recombinant BRD4 BD2 was < 1 nM each time.
Take `COc1c(-c2c(C)noc2C)cc2[nH]c3nc(C)nc(Nc4cc(C5CC5)nn4C)c3c2c1F` [Cpd. No. 305]: the IC50 at recombinant BRD4 BD1 is > 5000 nM; at recombinant BRD4 BD2 it was 850 nM; with MDA-MB-436, 1190 nM; in the test with LNCaP, 1160 nM. The inhibition constant Ki at recombinant BRD4 BD2 amounted to 342 nM.
For `COc1c(-c2c(C)noc2C)cc2[nH]c3nc(C)nc(N(C)c4cc(C5CC5)nn4C)c3c2c1F` [Cpd. No. 306, N-(3-cyclopropyl-1-methyl-1H-pyrazol-5-yl)-7-(3,5-dimethylisoxazol-4-yl)-5-fluoro-6-methoxy-N,2-dimethyl-9H-pyrimido[4,5-b]indol-4-amine], the IC50 came to 129 nM at recombinant BRD4 BD1, 43 nM at recombinant BRD4 BD2, 67 nM in the test on MDA-MB-436 and 534 nM with LNCaP. Further, the Ki at recombinant BRD4 BD1 was 30 nM; at recombinant BRD4 BD2 it was 10 nM.
As for `COc1cc2c([nH]c3nc(C)nc(Nc4cc(C5CC5)nn4C)c32)c(F)c1-c1c(C)noc1C` [Cpd. No. 307, N-(3-cyclopropyl-1-methyl-1H-pyrazol-5-yl)-7-(3,5-dimethylisoxazol-4-yl)-8-fluoro-6-methoxy-2-methyl-9H-pyrimido[4,5-b]indol-4-amine], the half-inhibitory concentration (IC50) on recombinant BRD4 BD1 worked out at 16 nM; at recombinant BRD4 BD2, 18 nM; in the test with MDA-MB-436, 130 nM; in the test with LNCaP, 59 nM. The results for the Ki on recombinant BRD4 BD1 and at recombinant BRD4 BD2 were 3.8 nM and 4.3 nM, respectively.
With `COc1cc2c([nH]c3nc(C)nc(N(C)c4cc(C5CC5)nn4C)c32)c(F)c1-c1c(C)noc1C` [Cpd. No. 308, N-(3-cyclopropyl-1-methyl-1H-pyrazol-5-yl)-7-(3,5-dimethylisoxazol-4-yl)-8-fluoro-6-methoxy-N,2-dimethyl-9H-pyrimido[4,5-b]indol-4-amine], the half-inhibitory concentration (IC50) at recombinant BRD4 BD1 worked out at 23 nM; on recombinant BRD4 BD2 it was 25 nM; with MDA-MB-436, 181 nM; with LNCaP, 106 nM. The Ki on recombinant BRD4 BD1 was determined as 5 nM; on recombinant BRD4 BD2, 5.3 nM.
As to `COc1cc2c([nH]c3ccnc(Nc4cc(C5CC5)nn4C)c32)c(F)c1-c1c(C)noc1C` [Cpd. No. 309, N-(3-cyclopropyl-1-methyl-1H-pyrazol-5-yl)-7-(3,5-dimethylisoxazol-4-yl)-6-fluoro-8-methoxy-5H-pyrido[4,3-b]indol-1-amine], the 50% inhibitory concentration (IC50) came out at 18 nM at recombinant BRD4 BD1, 40 nM at recombinant BRD4 BD2, 141 nM with MDA-MB-436 and 136 nM in the test on LNCaP. The Ki at recombinant BRD4 BD1 is 4.1 nM; on recombinant BRD4 BD2, 13 nM.
For the compound `COc1cc2c(cc1-c1c(C)noc1C)[nH]c1cncc(Nc3cc(C4CC4)nn3C)c12` [Cpd. No. 323, N-(3-Cyclopropyl-1-methyl-1H-pyrazol-5-yl)-7-(3,5-dimethylisoxazol-4-yl)-6-methoxy-9H-pyrido[3,4-b]indol-4-amine], the half-maximal inhibitory concentration (IC50) stood at 11.8 nM at recombinant BRD4 BD1, 5.9 nM at recombinant BRD4 BD2, 15 nM in the test on MDA-MB-436 and 21 nM in the test on LNCaP. For the same compound, the Ki came out at 1.6 nM at recombinant BRD4 BD1 and 1.2 nM on recombinant BRD4 BD2.
